Laboratory results: ChEMBL document CHEMBL1128987, “Benzenesulfonamide-peptide conjugates as probes for secondary binding sites near the active site of carbonic anhydrase” (Bioorg Med Chem Lett, 1996)
“And” between values parts separate entries of the source, which are not always exact repeats. Identical values can stand only once. Where a SMILES comes first, the peptide text is derived from it. [ ]: non-standard residue; d: D form. The star is where a group is joined. Benzoyl(4-SO2NH2) = NS(=O)(=O)c1ccc(C(=O)*)cc1; Phe(4-Cl) = N[C@@H](Cc1ccc(Cl)cc1)C(=O)O; Nle = CCCC[C@H](N)C(=O)O

Experiments:
Carbonic anhydrase 2 [1] = target: T1, Carbonic anhydrase 2 (Homo sapiens, UniProt P00918); test: Dissociation constant against human carbonic anhydrase II at 37 degree Centigrade
Carbonic anhydrase 2 [2] = target: T1, Carbonic anhydrase 2
Description: Kinetic constant for binding human carbonic anhydrase II

Carbonic anhydrase 2 [3] = target: T1, Carbonic anhydrase 2; remark: listed apart in the source
Description: Kinetic constant for binding human carbonic anhydrase II (Kon=Kd x Koff)

SMILES	Kd (Carbonic anhydrase 2 [1])	k off (Carbonic anhydrase 2 [2]) [s⁻¹]	k on (Carbonic anhydrase 2 [3]) [M⁻¹ s⁻¹]
Nc1ccc(CC(NC(=O)c2ccc(S(N)(=O)=O)cc2)C(=O)O)cc1 (centres undefined)	64 nM		
NS(=O)(=O)c1ccc(C(=O)NC(CC(=O)O)C(=O)O)cc1 (centres undefined)	1100 nM		
NS(=O)(=O)c1ccc(C(=O)NC(CO)C(=O)O)cc1 (centres undefined)	240 nM		
CCCCC(NC(=O)c1ccc(S(N)(=O)=O)cc1)C(=O)O (centres undefined)	5 nM	0.011	
NS(=O)(=O)c1ccc(C(=O)NCC(=O)NC(Cc2ccc([N+](=O)[O-])cc2)C(=O)O)cc1 (centres undefined)	150 nM		
NS(=O)(=O)c1ccc(C(=O)NCC(=O)NC(Cc2ccc(Cl)cc2)C(=O)O)cc1 (centres undefined)	100 nM		
C[C@@H](O)[C@H](NC(=O)CNC(=O)CNC(=O)CNC(=O)c1ccc(S(N)(=O)=O)cc1)C(=O)O	330 nM		
NS(=O)(=O)c1ccc(C(=O)NC(Cc2ccc(Cl)cc2)C(=O)O)cc1 (centres undefined)	15 nM and 14 nM	0.022	
NS(=O)(=O)c1ccc(C(=O)NCC(=O)NCC(=O)NCC(=O)N[C@@H](Cc2ccc(Cl)cc2)C(=O)O)cc1 ({Benzoyl(4-SO2NH2)}-GGG[Phe(4-Cl)]-OH)	96 nM and 99 nM	0.084	850000
NS(=O)(=O)c1ccc(C(=O)NCC(=O)NCC(=O)NCC(=O)N[C@@H](CC(=O)O)C(=O)O)cc1	300 nM		
CC(C)(C)C(NC(=O)c1ccc(S(N)(=O)=O)cc1)C(=O)O (centres undefined)	9 nM		
CCC(C)C(NC(=O)c1ccc(S(N)(=O)=O)cc1)C(=O)O (centres undefined)	9 nM		
NS(=O)(=O)c1ccc(C(=O)NCC(=O)NC(CO)C(=O)O)cc1 (centres undefined)	280 nM		
CC(C)CC(NC(=O)CNC(=O)c1ccc(S(N)(=O)=O)cc1)C(=O)O (centres undefined)	130 nM		
NS(=O)(=O)c1ccc(C(=O)NC(CCC(=O)O)C(=O)O)cc1 (centres undefined)	530 nM		
NS(=O)(=O)c1ccc(C(=O)NC(Cc2ccccc2)C(=O)O)cc1 (centres undefined)	13 nM		
NC(=O)CC(NC(=O)CNC(=O)c1ccc(S(N)(=O)=O)cc1)C(=O)O (centres undefined)	290 nM		
N=C(N)NCCC[C@H](NC(=O)CNC(=O)CNC(=O)CNC(=O)c1ccc(S(N)(=O)=O)cc1)C(=O)O	290 nM		
NS(=O)(=O)c1ccc(C(=O)NCC(=O)NC(Cc2ccc3ccccc3c2)C(=O)O)cc1 (centres undefined)	130 nM		
NS(=O)(=O)c1ccc(C(=O)NCC(=O)NCC(=O)NCC(=O)N[C@@H](Cc2ccccc2)C(=O)O)cc1	200 nM		
NS(=O)(=O)c1ccc(C(=O)NCC(=O)NCC(=O)N[C@@H](Cc2ccc(Cl)cc2)C(=O)O)cc1	94 nM		
NS(=O)(=O)c1ccc(C(=O)NCC(=O)NC(Cc2ccccc2)C(=O)O)cc1 (centres undefined)	140 nM		
CCCC[C@H](NC(=O)CNC(=O)CNC(=O)CNC(=O)c1ccc(S(N)(=O)=O)cc1)C(=O)O ({Benzoyl(4-SO2NH2)}-GGG[Nle]-OH)	190 nM and 220 nM	0.093	420000

SMILES	Kd (Carbonic anhydrase 2 [1])	k off (Carbonic anhydrase 2 [2]) [s⁻¹]	k on (Carbonic anhydrase 2 [3]) [M⁻¹ s⁻¹]
NS(=O)(=O)c1ccc(C(=O)N2CCCC2C(=O)O)cc1 (centres undefined)	230 nM		
CC(O)C(NC(=O)c1ccc(S(N)(=O)=O)cc1)C(=O)O (centres undefined)	53 nM		
COc1ccc(C[C@H](NC(=O)CNC(=O)CNC(=O)CNC(=O)c2ccc(S(N)(=O)=O)cc2)C(=O)O)cc1	170 nM		
NC(=O)CC[C@H](NC(=O)CNC(=O)CNC(=O)CNC(=O)c1ccc(S(N)(=O)=O)cc1)C(=O)O	280 nM		
C[C@H](NC(=O)CNC(=O)CNC(=O)c1ccc(S(N)(=O)=O)cc1)C(=O)O	250 nM		
COc1ccc(C[C@H](NC(=O)CNC(=O)CNC(=O)c2ccc(S(N)(=O)=O)cc2)C(=O)O)cc1	170 nM		
CC(C)C(NC(=O)c1ccc(S(N)(=O)=O)cc1)C(=O)O (centres undefined)	15 nM		
NS(=O)(=O)c1ccc(C(=O)NCC(=O)NCC(=O)NCC(=O)NCC(=O)O)cc1 ({Benzoyl(4-SO2NH2)}-GGGG-OH)	390 nM and 360 nM	0.09	250000
CC(C)[C@H](NC(=O)CNC(=O)CNC(=O)c1ccc(S(N)(=O)=O)cc1)C(=O)O	260 nM		
NS(=O)(=O)c1ccc(C(=O)NCC(=O)NCC(=O)NCC(=O)N[C@@H](CO)C(=O)O)cc1	360 nM		
NC(=O)C[C@H](NC(=O)CNC(=O)CNC(=O)c1ccc(S(N)(=O)=O)cc1)C(=O)O	270 nM		
NS(=O)(=O)c1ccc(C(=O)NCC(=O)NCC(=O)NCC(=O)N[C@@H](Cc2ccc(F)cc2)C(=O)O)cc1	140 nM		
NC(=O)CC(NC(=O)c1ccc(S(N)(=O)=O)cc1)C(=O)O (centres undefined)	380 nM		
N=C(N)NCCC[C@H](NC(=O)CNC(=O)CNC(=O)c1ccc(S(N)(=O)=O)cc1)C(=O)O	300 nM		
CC(C)C[C@H](NC(=O)CNC(=O)CNC(=O)c1ccc(S(N)(=O)=O)cc1)C(=O)O	210 nM		
NS(=O)(=O)c1ccc(C(=O)NCC(=O)N2CCCC2C(=O)O)cc1 (centres undefined)	250 nM		
Nc1ccc(C[C@H](NC(=O)CNC(=O)CNC(=O)CNC(=O)c2ccc(S(N)(=O)=O)cc2)C(=O)O)cc1	190 nM		
NS(=O)(=O)c1ccc(C(=O)NCC(=O)NCC(=O)NCC(=O)O)cc1	230 nM		
C[C@H](NC(=O)CNC(=O)CNC(=O)CNC(=O)c1ccc(S(N)(=O)=O)cc1)C(=O)O	300 nM		
CCCC[C@H](NC(=O)CNC(=O)CNC(=O)c1ccc(S(N)(=O)=O)cc1)C(=O)O	140 nM		
NC(=O)CC[C@H](NC(=O)CNC(=O)CNC(=O)c1ccc(S(N)(=O)=O)cc1)C(=O)O	270 nM		
NC(=O)C[C@H](NC(=O)CNC(=O)CNC(=O)CNC(=O)c1ccc(S(N)(=O)=O)cc1)C(=O)O	290 nM		
CC[C@H](C)[C@H](NC(=O)CNC(=O)CNC(=O)CNC(=O)c1ccc(S(N)(=O)=O)cc1)C(=O)O	230 nM		

SMILES	Kd (Carbonic anhydrase 2 [1])	k off (Carbonic anhydrase 2 [2]) [s⁻¹]	k on (Carbonic anhydrase 2 [3]) [M⁻¹ s⁻¹]
NS(=O)(=O)c1ccc(C(=O)NCC(=O)NCC(=O)NCC(=O)N[C@@H](Cc2ccc([N+](=O)[O-])cc2)C(=O)O)cc1	160 nM		
NC(=O)CCC(NC(=O)CNC(=O)c1ccc(S(N)(=O)=O)cc1)C(=O)O (centres undefined)	240 nM		
NS(=O)(=O)c1ccc(C(=O)NCC(=O)NC(CCC(=O)O)C(=O)O)cc1 (centres undefined)	500 nM		
NS(=O)(=O)c1ccc(C(=O)NCC(=O)NCC(=O)N[C@@H](CO)C(=O)O)cc1	290 nM		
CC(C)C(NC(=O)CNC(=O)c1ccc(S(N)(=O)=O)cc1)C(=O)O (centres undefined)	140 nM		
CSCCC(NC(=O)c1ccc(S(N)(=O)=O)cc1)C(=O)O (centres undefined)	10 nM		
NS(=O)(=O)c1ccc(C(=O)NCC(=O)NCC(=O)NCC(=O)N[C@@H](CCC(=O)O)C(=O)O)cc1	371 nM		
CC(O)C(NC(=O)CNC(=O)c1ccc(S(N)(=O)=O)cc1)C(=O)O (centres undefined)	320 nM		
N=C(N)NCCCC(NC(=O)c1ccc(S(N)(=O)=O)cc1)C(=O)O (centres undefined)	220 nM		
NS(=O)(=O)c1ccc(C(=O)NC(Cc2ccc3ccccc3c2)C(=O)O)cc1 (centres undefined)	17 nM		
COc1ccc(CC(NC(=O)CNC(=O)c2ccc(S(N)(=O)=O)cc2)C(=O)O)cc1 (centres undefined)	170 nM		
CCC(C)C(NC(=O)CNC(=O)c1ccc(S(N)(=O)=O)cc1)C(=O)O (centres undefined)	160 nM		
NS(=O)(=O)c1ccc(C(=O)NCC(=O)NC(CC(=O)O)C(=O)O)cc1 (centres undefined)	420 nM		
NS(=O)(=O)c1ccc(C(=O)NC(Cc2ccc(F)cc2)C(=O)O)cc1 (centres undefined)	17 nM		
Nc1ccc(C[C@H](NC(=O)CNC(=O)CNC(=O)c2ccc(S(N)(=O)=O)cc2)C(=O)O)cc1	210 nM		
NS(=O)(=O)c1ccc(C(=O)NCC(=O)NCC(=O)N[C@@H](CC(=O)O)C(=O)O)cc1	400 nM		
CCCCC(NC(=O)CNC(=O)c1ccc(S(N)(=O)=O)cc1)C(=O)O (centres undefined)	140 nM		
NS(=O)(=O)c1ccc(C(=O)NCC(=O)NCC(=O)N2CCC[C@H]2C(=O)O)cc1	340 nM		
NC(=O)CCC(NC(=O)c1ccc(S(N)(=O)=O)cc1)C(=O)O (centres undefined)	140 nM		
NS(=O)(=O)c1ccc(C(=O)NCC(=O)NCC(=O)N[C@@H](CCC(=O)O)C(=O)O)cc1	372 nM		
NS(=O)(=O)c1ccc(C(=O)NCC(=O)NCC(=O)NCC(=O)N2CCC[C@H]2C(=O)O)cc1	330 nM		
NS(=O)(=O)c1ccc(C(=O)NCC(=O)NCC(=O)O)cc1	290 nM		
NS(=O)(=O)c1ccc(C(=O)NC(Cc2ccc([N+](=O)[O-])cc2)C(=O)O)cc1 (centres undefined)	22 nM		

SMILES	Kd (Carbonic anhydrase 2 [1])	k off (Carbonic anhydrase 2 [2]) [s⁻¹]	k on (Carbonic anhydrase 2 [3]) [M⁻¹ s⁻¹]
COc1ccc(CC(NC(=O)c2ccc(S(N)(=O)=O)cc2)C(=O)O)cc1 (centres undefined)	27 nM		
C[C@H](NC(=O)CNC(=O)c1ccc(S(N)(=O)=O)cc1)C(=O)O	170 nM		
N=C(N)NCCCC(NC(=O)CNC(=O)c1ccc(S(N)(=O)=O)cc1)C(=O)O (centres undefined)	190 nM		
Nc1ccc(CC(NC(=O)CNC(=O)c2ccc(S(N)(=O)=O)cc2)C(=O)O)cc1 (centres undefined)	330 nM		
CC[C@H](C)[C@H](NC(=O)CNC(=O)CNC(=O)c1ccc(S(N)(=O)=O)cc1)C(=O)O	230 nM		
CC(C)(C)[C@H](NC(=O)CNC(=O)CNC(=O)c1ccc(S(N)(=O)=O)cc1)C(=O)O	240 nM		
CC(C)[C@H](NC(=O)CNC(=O)CNC(=O)CNC(=O)c1ccc(S(N)(=O)=O)cc1)C(=O)O	290 nM		
NS(=O)(=O)c1ccc(C(=O)NCC(=O)NCC(=O)N[C@@H](Cc2ccc(F)cc2)C(=O)O)cc1	120 nM		
CSCC[C@@H](NC(=O)CNC(=O)CNC(=O)CNC(=O)c1ccc(S(N)(=O)=O)cc1)C(=O)O	220 nM		
NS(=O)(=O)c1ccc(C(=O)NCC(=O)NCC(=O)NCC(=O)N[C@@H](Cc2ccc3ccccc3c2)C(=O)O)cc1	160 nM		
NS(=O)(=O)c1ccc(C(=O)NCC(=O)NCC(=O)N[C@@H](Cc2ccccc2)C(=O)O)cc1	140 nM		
CSCCC(NC(=O)CNC(=O)c1ccc(S(N)(=O)=O)cc1)C(=O)O (centres undefined)	160 nM		
C[C@@H](O)[C@H](NC(=O)CNC(=O)CNC(=O)c1ccc(S(N)(=O)=O)cc1)C(=O)O	330 nM		
CC(C)CC(NC(=O)c1ccc(S(N)(=O)=O)cc1)C(=O)O (centres undefined)	9 nM		
CC(NC(=O)c1ccc(S(N)(=O)=O)cc1)C(=O)O (centres undefined)	120 nM		
NS(=O)(=O)c1ccc(C(=O)NCC(=O)NC(Cc2ccc(F)cc2)C(=O)O)cc1 (centres undefined)	130 nM		
CC(C)(C)[C@H](NC(=O)CNC(=O)CNC(=O)CNC(=O)c1ccc(S(N)(=O)=O)cc1)C(=O)O	210 nM		
CSCC[C@@H](NC(=O)CNC(=O)CNC(=O)c1ccc(S(N)(=O)=O)cc1)C(=O)O	160 nM		
NS(=O)(=O)c1ccc(C(=O)NCC(=O)NCC(=O)N[C@@H](Cc2ccc([N+](=O)[O-])cc2)C(=O)O)cc1	130 nM		
CC(C)C[C@H](NC(=O)CNC(=O)CNC(=O)CNC(=O)c1ccc(S(N)(=O)=O)cc1)C(=O)O	210 nM		
CC(C)(C)C(NC(=O)CNC(=O)c1ccc(S(N)(=O)=O)cc1)C(=O)O (centres undefined)	150 nM		
NS(=O)(=O)c1ccc(C(=O)NCC(=O)NCC(=O)NC(Cc2ccc3ccccc3c2)C(=O)O)cc1 (centres undefined)	160 nM		
